Assay results from ChEMBL document CHEMBL4387741, “Optimization of novel reversible Bruton's tyrosine kinase inhibitors identified using Tethering-fragment-based screens” (Bioorg Med Chem, 2019).

Experiments:
[1] = biological target: Serine/threonine-protein kinase DCLK3 (Homo sapiens) (UniProt Q9C098); test: Inhibition of wild-type human partial length DCAMKL3 (E140 to V628 residues) expressed in bacterial expression system at 1 uM by Kinomescan method relative to control
[2] = biological target: Receptor tyrosine-protein kinase erbB-4 (Homo sapiens) (UniProt Q15303); test: Inhibition of wild-type human partial length ERBB4 (L690 to K994 residues) expressed in bacterial expression system at 1 uM by Kinomescan method relative to control
[3] = biological target: Receptor-type tyrosine-protein kinase FLT3 (Homo sapiens) (UniProt P36888); test: Inhibition of wild-type human partial length autoinhibited FLT3 (H564 to Y969 residues) expressed in mammalian expression system at 1 uM by Kinomescan method relative to control
[4] = biological target: Tyrosine-protein kinase JAK1 (Homo sapiens) (UniProt P23458); test: Inhibition of wild-type human partial length JAK1 JH2 pseudokinase domain (R537 to D855 residues) expressed in mammalian expression system at 1 uM by Kinomescan method relative to control
[5] = biological target: Tyrosine-protein kinase JAK3 (Homo sapiens) (UniProt P52333); test: Inhibition of wild-type human partial length JAK3 JH1 catalytic domain (I781 to S1124 residues) expressed in mammalian expression system at 1 uM by Kinomescan method relative to control
[6] = biological target: Hepatocyte growth factor receptor (Homo sapiens) (UniProt P08581); test: Inhibition of wild-type human partial length MET (D1010 to S1367 residues) expressed in bacterial expression system at 1 uM by Kinomescan method relative to control
[7] = biological target: Misshapen-like kinase 1 (Homo sapiens) (UniProt Q8N4C8); test: Inhibition of wild-type human partial length MINK (M1 to K312 residues) expressed in mammalian expression system at 1 uM by Kinomescan method relative to control
[8] = biological target: Serine/threonine-protein kinase Nek2 (Homo sapiens) (UniProt P51955); test: Inhibition of wild-type human partial length NEK2 (M1 to K309 residues) expressed in bacterial expression system at 1 uM by Kinomescan method relative to control
[9] = biological target: Mitogen-activated protein kinase 13 (Homo sapiens) (UniProt O15264); test: Inhibition of wild-type human full length p38-delta (M1 to L365 residues) expressed in bacterial expression system at 1 uM by Kinomescan method relative to control
[10] = biological target: Serine/threonine-protein kinase pim-3 (Homo sapiens) (UniProt Q86V86); test: Inhibition of wild-type human partial length PIM3 (G16 to A317 residues) expressed in bacterial expression system at 1 uM by Kinomescan method relative to control
[11] = biological target: cAMP-dependent protein kinase catalytic subunit beta (Homo sapiens) (UniProt P22694); test: Inhibition of wild-type human full length PKAC-beta (M1 to F351 residues) expressed in bacterial expression system at 1 uM by Kinomescan method relative to control
[12] = biological target: Serine/threonine-protein kinase SIK2 (Homo sapiens) (UniProt Q9H0K1); test: Inhibition of wild-type human full length SIK2 (M1 to N926 residues) expressed in bacterial expression system at 1 uM by Kinomescan method relative to control
Chain of Serine/threonine-protein kinase SIK2 (Homo sapiens) (Q9H0K1 whole entry, looked up, the tested form may be a part): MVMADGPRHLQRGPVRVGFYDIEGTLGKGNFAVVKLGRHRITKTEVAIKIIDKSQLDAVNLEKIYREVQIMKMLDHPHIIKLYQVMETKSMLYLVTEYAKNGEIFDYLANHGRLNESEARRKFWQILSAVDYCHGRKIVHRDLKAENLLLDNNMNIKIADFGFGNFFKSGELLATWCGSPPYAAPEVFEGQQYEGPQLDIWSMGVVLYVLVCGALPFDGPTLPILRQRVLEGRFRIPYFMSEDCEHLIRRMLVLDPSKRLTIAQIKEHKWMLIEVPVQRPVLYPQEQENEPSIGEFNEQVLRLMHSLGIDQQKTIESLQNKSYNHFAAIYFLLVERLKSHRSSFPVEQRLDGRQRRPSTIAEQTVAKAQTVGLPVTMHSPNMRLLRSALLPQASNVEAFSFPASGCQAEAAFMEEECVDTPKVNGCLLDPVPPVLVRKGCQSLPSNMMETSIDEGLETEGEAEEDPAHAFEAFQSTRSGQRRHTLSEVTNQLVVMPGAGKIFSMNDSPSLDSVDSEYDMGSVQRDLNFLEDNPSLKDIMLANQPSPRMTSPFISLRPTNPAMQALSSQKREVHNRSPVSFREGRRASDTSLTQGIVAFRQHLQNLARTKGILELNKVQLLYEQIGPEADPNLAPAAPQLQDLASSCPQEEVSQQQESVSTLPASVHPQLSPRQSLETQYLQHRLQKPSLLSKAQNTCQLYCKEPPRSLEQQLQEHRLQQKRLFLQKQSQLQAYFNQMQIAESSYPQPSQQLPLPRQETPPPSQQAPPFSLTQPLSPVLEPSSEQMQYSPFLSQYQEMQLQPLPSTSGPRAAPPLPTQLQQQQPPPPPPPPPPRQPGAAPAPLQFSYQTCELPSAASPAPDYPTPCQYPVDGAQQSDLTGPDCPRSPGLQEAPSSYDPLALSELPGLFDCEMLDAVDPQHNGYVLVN

[13] = biological target: Tyrosine-protein kinase Yes (Homo sapiens) (UniProt P07947); test: Inhibition of wild-type human partial length YES (T257 to L543 residues) expressed in bacterial expression system at 1 uM by Kinomescan method relative to control
[14] = biological target: Mitogen-activated protein kinase kinase kinase 12 (Homo sapiens) (UniProt Q12852); test: Inhibition of wild-type human full length DLK (M1 to P859 residues) expressed in mammalian expression system at 1 uM by Kinomescan method relative to control
Chain of Mitogen-activated protein kinase kinase kinase 12 (Homo sapiens) (Q12852 whole entry, looked up, the tested form may be a part): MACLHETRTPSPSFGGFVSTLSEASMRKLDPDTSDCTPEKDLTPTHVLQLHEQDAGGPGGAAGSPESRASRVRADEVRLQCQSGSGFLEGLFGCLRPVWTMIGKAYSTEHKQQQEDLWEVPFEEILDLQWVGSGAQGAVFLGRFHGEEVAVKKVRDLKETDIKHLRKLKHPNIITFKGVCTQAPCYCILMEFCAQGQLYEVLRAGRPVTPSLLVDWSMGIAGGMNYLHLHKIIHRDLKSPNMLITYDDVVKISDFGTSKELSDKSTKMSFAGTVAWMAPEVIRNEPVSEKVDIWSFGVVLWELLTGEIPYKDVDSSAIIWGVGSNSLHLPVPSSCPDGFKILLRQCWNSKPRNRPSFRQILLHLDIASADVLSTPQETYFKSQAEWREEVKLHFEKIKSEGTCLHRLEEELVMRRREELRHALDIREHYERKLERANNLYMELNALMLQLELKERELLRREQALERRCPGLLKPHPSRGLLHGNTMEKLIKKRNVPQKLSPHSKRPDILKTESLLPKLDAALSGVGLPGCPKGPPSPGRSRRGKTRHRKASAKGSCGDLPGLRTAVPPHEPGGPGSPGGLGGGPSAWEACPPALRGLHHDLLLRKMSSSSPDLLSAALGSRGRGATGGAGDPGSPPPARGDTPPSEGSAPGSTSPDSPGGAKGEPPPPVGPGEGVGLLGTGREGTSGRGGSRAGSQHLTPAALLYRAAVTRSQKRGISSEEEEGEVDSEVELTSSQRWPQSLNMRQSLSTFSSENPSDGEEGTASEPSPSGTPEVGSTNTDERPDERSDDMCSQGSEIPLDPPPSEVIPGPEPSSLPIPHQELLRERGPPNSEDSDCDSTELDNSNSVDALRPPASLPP

[15] = biological target: Serine/threonine-protein kinase 17B (Homo sapiens) (UniProt O94768); test: Inhibition of wild-type human full length DRAK2 (M1 to C372 residues) expressed in bacterial expression system at 10 uM by Kinomescan method relative to control
[16] = biological target: G protein-coupled receptor kinase 4 (Homo sapiens) (UniProt P32298); test: Inhibition of wild-type human full length GRK4 (M1 to C578 residues) expressed in bacterial expression system at 10 uM by Kinomescan method relative to control
Chain of G protein-coupled receptor kinase 4 (Homo sapiens) (P32298 whole entry, looked up, the tested form may be a part): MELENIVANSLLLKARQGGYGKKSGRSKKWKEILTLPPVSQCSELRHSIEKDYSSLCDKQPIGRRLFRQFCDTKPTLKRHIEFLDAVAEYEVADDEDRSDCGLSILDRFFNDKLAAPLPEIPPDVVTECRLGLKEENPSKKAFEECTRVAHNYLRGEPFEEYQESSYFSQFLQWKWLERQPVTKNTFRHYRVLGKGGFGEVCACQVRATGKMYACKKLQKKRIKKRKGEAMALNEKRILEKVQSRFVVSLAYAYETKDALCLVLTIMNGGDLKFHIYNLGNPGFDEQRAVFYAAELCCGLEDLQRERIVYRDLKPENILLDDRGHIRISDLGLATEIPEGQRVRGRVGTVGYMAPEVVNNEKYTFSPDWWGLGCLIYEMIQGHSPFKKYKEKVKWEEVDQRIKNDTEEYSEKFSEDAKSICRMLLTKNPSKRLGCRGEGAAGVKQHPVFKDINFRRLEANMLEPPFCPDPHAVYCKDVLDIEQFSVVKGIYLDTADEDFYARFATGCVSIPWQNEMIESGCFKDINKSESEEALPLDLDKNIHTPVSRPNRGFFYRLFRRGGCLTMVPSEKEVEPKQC

[17] = tested on: Leucine-rich repeat serine/threonine-protein kinase 2 (Homo sapiens), Q5S007 [G2019S]; test: Inhibition of human partial length LRRK2 G2019S mutant (H970 to E2527 residues) expressed in mammalian expression system at 10 uM by Kinomescan method relative to control
[18] = biological target: Muscle, skeletal receptor tyrosine-protein kinase (Homo sapiens) (UniProt O15146); test: Inhibition of wild-type human partial length MUSK (M553 to V869 residues) expressed in bacterial expression system at 10 uM by Kinomescan method relative to control
Chain of Muscle, skeletal receptor tyrosine-protein kinase (Homo sapiens) (O15146 whole entry, the tested form may be a part): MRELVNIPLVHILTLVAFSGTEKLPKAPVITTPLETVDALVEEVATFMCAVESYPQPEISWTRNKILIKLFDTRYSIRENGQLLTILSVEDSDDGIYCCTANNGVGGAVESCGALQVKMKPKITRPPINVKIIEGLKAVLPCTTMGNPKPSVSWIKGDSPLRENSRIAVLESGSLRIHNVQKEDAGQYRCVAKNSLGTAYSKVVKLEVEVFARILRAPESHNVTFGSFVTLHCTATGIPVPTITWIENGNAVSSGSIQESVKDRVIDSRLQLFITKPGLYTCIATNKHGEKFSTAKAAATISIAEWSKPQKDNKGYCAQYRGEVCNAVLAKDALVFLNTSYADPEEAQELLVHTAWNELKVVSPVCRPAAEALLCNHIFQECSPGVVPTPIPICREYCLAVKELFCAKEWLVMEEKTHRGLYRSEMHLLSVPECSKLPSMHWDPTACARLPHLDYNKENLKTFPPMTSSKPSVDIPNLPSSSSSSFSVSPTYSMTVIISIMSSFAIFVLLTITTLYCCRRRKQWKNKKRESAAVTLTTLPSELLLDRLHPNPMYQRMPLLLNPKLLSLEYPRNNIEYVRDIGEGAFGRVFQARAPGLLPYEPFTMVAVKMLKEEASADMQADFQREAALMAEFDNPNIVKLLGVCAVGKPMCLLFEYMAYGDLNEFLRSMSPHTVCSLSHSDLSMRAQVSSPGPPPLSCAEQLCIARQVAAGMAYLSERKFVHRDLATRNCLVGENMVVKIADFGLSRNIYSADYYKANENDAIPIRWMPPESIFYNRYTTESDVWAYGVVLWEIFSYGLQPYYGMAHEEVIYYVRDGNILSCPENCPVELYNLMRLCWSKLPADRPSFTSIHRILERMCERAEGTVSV

[19] = biological target: Myosin-IIIb (Homo sapiens) (UniProt Q8WXR4); test: Inhibition of wild-type human partial length MYO3B (M1 to D357 residues) expressed in bacterial expression system at 10 uM by Kinomescan method relative to control
[20] = biological target: Phosphatidylinositol 3-kinase C2 domain-containing subunit gamma (Homo sapiens) (UniProt O75747); test: Inhibition of wild-type human partial length PIK3C2G (M1 to I1446 residues) expressed in mammalian expression system at 10 uM by Kinomescan method relative to control
[21] = tested on: Phosphatidylinositol 4,5-bisphosphate 3-kinase catalytic subunit alpha isoform (Homo sapiens), P42336 [Q546K]; test: Inhibition of human partial length PIK3CA Q546K mutant (R108 to N1068 residues) expressed in mammalian expression system at 10 uM by Kinomescan method relative to control
[22] = biological target: Protein kinase C iota type (Homo sapiens) (UniProt P41743); test: Inhibition of wild-type human partial length PRKCI (H215 to V587 residues) expressed in mammalian expression system at 10 uM by Kinomescan method relative to control
Chain of Protein kinase C iota type (Homo sapiens) (P41743 whole entry, the tested form may be a part): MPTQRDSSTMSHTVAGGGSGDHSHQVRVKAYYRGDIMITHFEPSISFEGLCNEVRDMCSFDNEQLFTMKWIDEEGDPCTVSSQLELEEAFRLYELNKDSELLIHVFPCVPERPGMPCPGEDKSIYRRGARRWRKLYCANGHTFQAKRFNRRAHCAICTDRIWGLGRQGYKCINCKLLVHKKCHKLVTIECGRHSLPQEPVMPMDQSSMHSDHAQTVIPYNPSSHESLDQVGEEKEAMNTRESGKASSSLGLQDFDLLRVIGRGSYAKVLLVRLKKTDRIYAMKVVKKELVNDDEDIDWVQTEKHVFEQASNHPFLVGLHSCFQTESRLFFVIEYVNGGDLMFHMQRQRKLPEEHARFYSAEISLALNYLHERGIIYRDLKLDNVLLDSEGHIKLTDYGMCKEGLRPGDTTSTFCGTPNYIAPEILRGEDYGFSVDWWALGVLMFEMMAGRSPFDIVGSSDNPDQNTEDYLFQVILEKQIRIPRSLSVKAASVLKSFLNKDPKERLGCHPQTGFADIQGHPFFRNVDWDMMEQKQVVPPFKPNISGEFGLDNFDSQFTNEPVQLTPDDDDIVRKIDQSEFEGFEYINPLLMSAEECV

[23] = biological target: Protein-tyrosine kinase 2-beta (Homo sapiens) (UniProt Q14289); test: Inhibition of wild-type human full length PYK2 (M1 to E967 residues) expressed in bacterial expression system at 10 uM by Kinomescan method relative to control
[24] = biological target: TGF-beta receptor type-1 (Homo sapiens) (UniProt P36897); test: Inhibition of wild-type human partial length TGFBR1 (D179 to M503 residues) expressed in bacterial expression system at 10 uM by Kinomescan method relative to control
[25] = biological target: NT-3 growth factor receptor (Homo sapiens) (UniProt Q16288); test: Inhibition of wild-type human partial length TRKC (Q531 to G825 residues) expressed in mammalian expression system at 10 uM by Kinomescan method relative to control
[26] = biological target: Serine/threonine-protein kinase ULK2 (Homo sapiens) (UniProt Q8IYT8); test: Inhibition of wild-type human partial length ULK2 (M1 to S301 residues) expressed in mammalian expression system at 10 uM by Kinomescan method relative to control
Chain of Serine/threonine-protein kinase ULK2 (Homo sapiens) (Q8IYT8 whole entry, the tested form may be a part): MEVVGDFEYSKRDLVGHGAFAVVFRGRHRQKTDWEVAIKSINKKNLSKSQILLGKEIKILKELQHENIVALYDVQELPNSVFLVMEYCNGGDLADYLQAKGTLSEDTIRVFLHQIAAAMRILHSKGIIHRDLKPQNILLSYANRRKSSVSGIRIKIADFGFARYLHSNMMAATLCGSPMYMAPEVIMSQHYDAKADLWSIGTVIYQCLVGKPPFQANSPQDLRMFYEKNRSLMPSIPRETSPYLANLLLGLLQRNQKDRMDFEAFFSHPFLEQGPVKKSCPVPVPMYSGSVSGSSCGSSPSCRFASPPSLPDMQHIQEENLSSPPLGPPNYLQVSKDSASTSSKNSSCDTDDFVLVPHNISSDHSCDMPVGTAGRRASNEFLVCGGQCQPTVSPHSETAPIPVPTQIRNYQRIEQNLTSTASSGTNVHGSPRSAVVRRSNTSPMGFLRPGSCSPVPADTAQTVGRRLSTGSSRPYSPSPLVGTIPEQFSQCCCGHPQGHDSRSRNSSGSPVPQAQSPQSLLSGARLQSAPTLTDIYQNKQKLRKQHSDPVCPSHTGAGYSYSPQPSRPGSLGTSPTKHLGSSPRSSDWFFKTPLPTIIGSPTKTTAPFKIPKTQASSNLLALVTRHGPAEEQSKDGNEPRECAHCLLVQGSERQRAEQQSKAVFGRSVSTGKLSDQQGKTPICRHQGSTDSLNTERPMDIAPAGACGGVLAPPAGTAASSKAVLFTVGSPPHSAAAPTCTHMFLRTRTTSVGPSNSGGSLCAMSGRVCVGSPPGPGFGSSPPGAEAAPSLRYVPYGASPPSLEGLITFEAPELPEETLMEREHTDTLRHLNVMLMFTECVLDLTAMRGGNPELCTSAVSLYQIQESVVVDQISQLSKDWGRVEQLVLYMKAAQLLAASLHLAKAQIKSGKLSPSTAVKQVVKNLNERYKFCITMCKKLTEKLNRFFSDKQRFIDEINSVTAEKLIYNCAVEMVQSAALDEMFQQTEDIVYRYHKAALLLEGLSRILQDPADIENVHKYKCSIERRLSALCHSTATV

## O=C(Nc1cccc([C@@H]2CN(c3ncnc4[nH]ccc34)CCN2CCO)c1)Nc1c(F)cccc1N1CCCC1
[1]
  inhibition: 85%
[2]
  inhibition: 100%
[3]
  inhibition: 68%
[4]
  inhibition: 75%
[5]
  inhibition: 4.3%
[6]
  inhibition: 95%
[7]
  inhibition: 69%
[8]
  inhibition: 100%
[9]
  inhibition: 100%
[10]
  inhibition: 89%
[11]
  inhibition: 99%
[12]
  inhibition: 93%
[13]
  inhibition: 67%
[14]
  inhibition: 79%

## O=C(Nc1cccc([C@H]2CCCN(c3ncnc4[nH]ccc34)C2)c1)Nc1ccccc1N1CCCC1
[15]
  inhibition: 74%
[16]
  inhibition: 7.4%
[17]
  inhibition: 63%
[18]
  inhibition: 97%
[19]
  inhibition: 60%
[20]
  inhibition: 89%
[21]
  inhibition: 81%
[22]
  inhibition: 51%
[23]
  inhibition: 96%
[24]
  inhibition: 96%
[25]
  inhibition: 36%
[26]
  inhibition: 50%
